Assays:
Assay in all cases: Kinobeads elution with test compound, mouse brain lysate, MS
Format in all cases: binding
Details in all cases: kinase released from kinobeads by specific elution
[1] = biological target: T1, GSK3Aps (Mus musculus, UniProt Q2NL51)
T1 construct: from tissue; host or cells: mouse brain
Method: (§1) This example illustrates competitive elution of proteins bound to kinobeads with non-modified test compounds (see particularly the fourth aspect of the invention). The kinobeads (as described in example 1) were contacted with mouse brains lysate, bound proteins were eluted with various test compounds and the released proteins were analysed by mass spectrometry.
(§2) The kinobeads were contacted with mouse brain lysate under conditions that allow the binding of the proteins in the lysate to the ligands. The binding conditions were close to physiological by choosing suitable buffer conditions preserving the function of the proteins. After removing non-captured proteins through a gentle washing procedure the bound proteins were contacted with a test compound for protein elution.
(§3) Various test compounds (see section 2.7) were used to release bound proteins following these steps:
(§4) 1. Resuspend beads with bound proteins (section 2.4) in 1×DP buffer/0.2% NP-40 as 1:3 slurry (volume/volume). 2. Transfer 20 μl the 1:3 slurry into MoBiTech columns (equivalent to 5 μl of beads). 3. Place the column into an Eppendorf tube and centrifuge it for 15 seconds at 800 rpm at 4° C. Close columns with lower lid. 4. Add 10 μl elution buffer containing 1.0 mM of the test compound (concentration ranges of 0.1 to 1.0 mM are suitable). As a control use elution buffer containing 2% DMSO or 2% DMF dependent on the solvent used for dissolving the test compound. Close column with upper lid. 5. Incubate for 30 minutes at 4° C. in an Eppendorf incubator at 700 rpm. 6. Open column (first top, then bottom), put column back into siliconized tube (SafeSeal Microcentrifuge Tubes, cat. no 11270, Sorenson BioScience, Inc.). To harvest the eluate centrifuge 2 minutes at 2.000 rpm in table top centrifuge at room temperature. The typical volume of the eluate is approximately 15 μl. 7. Add 5 μl 4× NuPAGE SDS Sample Buffer (Invitrogen, NP0007) containing 100 mM DTT (DTT has to be added just prior to use). 8. Incubate for 30 minutes at 50° C. 9. Add 1/10 volume of 200 mg/ml iodoacetamide, incubate for 30 min at room temperature, protect from light. This reaction leads to the alkylation of cysteines for mass spectrometry. 10. Before loading samples onto the gel, centrifuge samples for 5 minutes at 15.000 rpm in order to remove precipitates. 11. For protein separation apply 10 μl sample to NuPAGE 4-12% Bis-Tris gel (Invitrogen, NPO335). 2.6 Preparation of Stock Solutions used in this Protocol
(§5) Search criteria varied depending on which mass spectrometer was used for the analysis.

[2] = biological target: FAK (Mus musculus, UniProt P34152)
Method: as §1, §2, §3, §4, §5

[3] = biological target: T2, GAK (Mus musculus, UniProt Q99KY4)
T2 construct: from tissue; host or cells: mouse brain
T2 sequence (Q99KY4 1-1305): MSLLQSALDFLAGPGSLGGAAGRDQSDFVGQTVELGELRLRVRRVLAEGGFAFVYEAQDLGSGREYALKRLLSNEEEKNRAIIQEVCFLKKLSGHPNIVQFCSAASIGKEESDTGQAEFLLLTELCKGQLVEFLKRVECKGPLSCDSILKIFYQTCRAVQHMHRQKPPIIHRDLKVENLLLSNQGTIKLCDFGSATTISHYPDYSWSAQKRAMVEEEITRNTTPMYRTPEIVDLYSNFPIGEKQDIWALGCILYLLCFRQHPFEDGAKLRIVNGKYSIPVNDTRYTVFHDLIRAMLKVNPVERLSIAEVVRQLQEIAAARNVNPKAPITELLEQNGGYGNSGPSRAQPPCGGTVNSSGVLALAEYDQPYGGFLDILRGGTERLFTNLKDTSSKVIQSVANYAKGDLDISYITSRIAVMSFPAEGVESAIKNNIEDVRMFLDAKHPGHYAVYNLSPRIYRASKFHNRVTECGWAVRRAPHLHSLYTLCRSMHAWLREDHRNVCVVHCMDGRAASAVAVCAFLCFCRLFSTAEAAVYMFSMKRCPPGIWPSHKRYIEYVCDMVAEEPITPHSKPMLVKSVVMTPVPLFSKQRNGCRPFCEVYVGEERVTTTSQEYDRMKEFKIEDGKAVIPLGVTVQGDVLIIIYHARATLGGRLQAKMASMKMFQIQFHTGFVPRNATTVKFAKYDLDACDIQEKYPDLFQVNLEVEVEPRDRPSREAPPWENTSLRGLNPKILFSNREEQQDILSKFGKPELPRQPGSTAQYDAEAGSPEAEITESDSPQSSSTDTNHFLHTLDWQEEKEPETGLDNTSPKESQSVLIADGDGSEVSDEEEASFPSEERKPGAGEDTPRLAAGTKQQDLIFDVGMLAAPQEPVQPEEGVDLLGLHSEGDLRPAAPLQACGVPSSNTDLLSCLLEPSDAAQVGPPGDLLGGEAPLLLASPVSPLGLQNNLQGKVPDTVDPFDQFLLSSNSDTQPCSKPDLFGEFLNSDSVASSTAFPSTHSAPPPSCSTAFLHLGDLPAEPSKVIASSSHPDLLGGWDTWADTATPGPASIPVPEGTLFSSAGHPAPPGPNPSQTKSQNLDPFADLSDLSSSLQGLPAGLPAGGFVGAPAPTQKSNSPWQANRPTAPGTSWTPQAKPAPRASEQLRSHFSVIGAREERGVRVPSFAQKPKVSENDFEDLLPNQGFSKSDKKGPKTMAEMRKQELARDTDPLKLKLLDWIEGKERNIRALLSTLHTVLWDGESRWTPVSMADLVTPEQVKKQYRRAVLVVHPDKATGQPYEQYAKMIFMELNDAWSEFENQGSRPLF
Method: as §1, §2, §3, §4, §5

[4] = test system: T3, RSK1 (Mus musculus)
T3 construct: from tissue; host or cells: mouse brain
Method: as §1, §2, §3, §4, §5

[5] = biological target: EphA4 (Mus musculus, UniProt Q03137)
Method: as §1, §2, §3, §4, §5

[6] = biological target: T4, SRC (Mus musculus, UniProt P05480)
T4 construct: from tissue; host or cells: mouse brain
Method: as §1, §2, §3, §4, §5

[7] = biological target: EphA5 (Mus musculus, UniProt Q60629)
Method: as §1, §2, §3, §4, §5

[8] = biological target: T5, RSK3 (Mus musculus, UniProt P18653)
T5 construct: from tissue; host or cells: mouse brain
Method: as §1, §2, §3, §4, §5

[9] = biological target: CSK (Mus musculus, UniProt P41241)
Method: as §1, §2, §3, §4, §5

[10] = biological target: T6, MAP2K1 (Mus musculus, UniProt P31938)
T6 construct: from tissue; host or cells: mouse brain
Method: as §1, §2, §3, §4, §5

Sequence of EphA4 (Q03137 20-986): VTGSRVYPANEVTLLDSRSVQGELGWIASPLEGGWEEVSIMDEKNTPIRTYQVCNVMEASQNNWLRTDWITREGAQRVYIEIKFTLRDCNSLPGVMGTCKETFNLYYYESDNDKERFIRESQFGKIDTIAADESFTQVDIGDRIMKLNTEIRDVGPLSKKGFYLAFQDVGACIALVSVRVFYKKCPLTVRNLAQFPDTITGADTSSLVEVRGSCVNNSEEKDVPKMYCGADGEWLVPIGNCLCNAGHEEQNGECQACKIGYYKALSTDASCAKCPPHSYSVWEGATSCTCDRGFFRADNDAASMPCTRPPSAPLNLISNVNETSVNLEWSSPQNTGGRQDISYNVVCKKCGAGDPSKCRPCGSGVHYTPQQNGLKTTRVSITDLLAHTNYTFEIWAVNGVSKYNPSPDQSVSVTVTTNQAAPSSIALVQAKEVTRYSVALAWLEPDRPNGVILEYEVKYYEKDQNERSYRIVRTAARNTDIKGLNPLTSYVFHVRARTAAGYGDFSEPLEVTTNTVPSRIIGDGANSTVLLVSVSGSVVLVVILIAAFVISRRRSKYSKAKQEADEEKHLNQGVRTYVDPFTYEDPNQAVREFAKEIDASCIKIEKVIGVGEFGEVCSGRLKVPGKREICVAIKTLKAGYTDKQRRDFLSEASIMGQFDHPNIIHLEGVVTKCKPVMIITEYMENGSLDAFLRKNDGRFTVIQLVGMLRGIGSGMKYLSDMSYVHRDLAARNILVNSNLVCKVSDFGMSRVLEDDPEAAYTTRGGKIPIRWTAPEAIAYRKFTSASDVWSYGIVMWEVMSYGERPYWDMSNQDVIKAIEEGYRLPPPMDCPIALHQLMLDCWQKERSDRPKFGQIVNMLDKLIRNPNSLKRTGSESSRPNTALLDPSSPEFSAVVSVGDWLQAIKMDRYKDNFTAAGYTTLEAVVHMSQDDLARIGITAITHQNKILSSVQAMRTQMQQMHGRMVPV
T4 sequence (P05480 whole entry): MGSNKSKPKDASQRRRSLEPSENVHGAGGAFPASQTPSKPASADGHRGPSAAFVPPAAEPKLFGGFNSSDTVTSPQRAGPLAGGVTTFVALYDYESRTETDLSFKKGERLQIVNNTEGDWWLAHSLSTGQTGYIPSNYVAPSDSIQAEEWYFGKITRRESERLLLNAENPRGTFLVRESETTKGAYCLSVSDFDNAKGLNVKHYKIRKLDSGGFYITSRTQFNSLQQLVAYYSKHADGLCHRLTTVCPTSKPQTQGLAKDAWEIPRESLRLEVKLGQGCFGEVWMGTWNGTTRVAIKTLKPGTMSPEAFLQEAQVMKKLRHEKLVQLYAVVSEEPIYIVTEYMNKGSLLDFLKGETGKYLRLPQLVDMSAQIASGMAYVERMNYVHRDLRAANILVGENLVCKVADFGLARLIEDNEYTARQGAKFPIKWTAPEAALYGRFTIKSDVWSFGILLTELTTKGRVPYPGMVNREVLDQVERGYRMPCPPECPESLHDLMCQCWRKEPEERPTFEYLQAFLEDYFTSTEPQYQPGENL
T3 sequence (Q9WUT3 whole entry): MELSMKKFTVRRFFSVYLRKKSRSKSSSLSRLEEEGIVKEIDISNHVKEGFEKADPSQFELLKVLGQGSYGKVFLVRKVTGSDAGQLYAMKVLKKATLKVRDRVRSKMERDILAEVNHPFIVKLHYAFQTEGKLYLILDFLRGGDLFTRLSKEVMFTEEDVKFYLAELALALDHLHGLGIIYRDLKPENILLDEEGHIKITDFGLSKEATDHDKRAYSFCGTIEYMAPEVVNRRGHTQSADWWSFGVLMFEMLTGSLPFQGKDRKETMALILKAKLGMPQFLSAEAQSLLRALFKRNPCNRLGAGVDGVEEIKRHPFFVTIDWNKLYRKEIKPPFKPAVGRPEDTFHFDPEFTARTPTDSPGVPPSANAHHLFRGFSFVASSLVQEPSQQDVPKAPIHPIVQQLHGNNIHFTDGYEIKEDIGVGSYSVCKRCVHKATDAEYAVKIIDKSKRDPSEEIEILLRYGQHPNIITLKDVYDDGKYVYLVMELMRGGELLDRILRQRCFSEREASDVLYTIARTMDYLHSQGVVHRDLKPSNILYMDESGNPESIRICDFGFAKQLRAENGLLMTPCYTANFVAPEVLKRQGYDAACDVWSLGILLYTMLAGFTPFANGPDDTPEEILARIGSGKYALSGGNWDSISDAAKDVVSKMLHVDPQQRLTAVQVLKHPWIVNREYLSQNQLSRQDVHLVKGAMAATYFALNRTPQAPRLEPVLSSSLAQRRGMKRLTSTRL
Sequence of FAK (P34152 whole entry): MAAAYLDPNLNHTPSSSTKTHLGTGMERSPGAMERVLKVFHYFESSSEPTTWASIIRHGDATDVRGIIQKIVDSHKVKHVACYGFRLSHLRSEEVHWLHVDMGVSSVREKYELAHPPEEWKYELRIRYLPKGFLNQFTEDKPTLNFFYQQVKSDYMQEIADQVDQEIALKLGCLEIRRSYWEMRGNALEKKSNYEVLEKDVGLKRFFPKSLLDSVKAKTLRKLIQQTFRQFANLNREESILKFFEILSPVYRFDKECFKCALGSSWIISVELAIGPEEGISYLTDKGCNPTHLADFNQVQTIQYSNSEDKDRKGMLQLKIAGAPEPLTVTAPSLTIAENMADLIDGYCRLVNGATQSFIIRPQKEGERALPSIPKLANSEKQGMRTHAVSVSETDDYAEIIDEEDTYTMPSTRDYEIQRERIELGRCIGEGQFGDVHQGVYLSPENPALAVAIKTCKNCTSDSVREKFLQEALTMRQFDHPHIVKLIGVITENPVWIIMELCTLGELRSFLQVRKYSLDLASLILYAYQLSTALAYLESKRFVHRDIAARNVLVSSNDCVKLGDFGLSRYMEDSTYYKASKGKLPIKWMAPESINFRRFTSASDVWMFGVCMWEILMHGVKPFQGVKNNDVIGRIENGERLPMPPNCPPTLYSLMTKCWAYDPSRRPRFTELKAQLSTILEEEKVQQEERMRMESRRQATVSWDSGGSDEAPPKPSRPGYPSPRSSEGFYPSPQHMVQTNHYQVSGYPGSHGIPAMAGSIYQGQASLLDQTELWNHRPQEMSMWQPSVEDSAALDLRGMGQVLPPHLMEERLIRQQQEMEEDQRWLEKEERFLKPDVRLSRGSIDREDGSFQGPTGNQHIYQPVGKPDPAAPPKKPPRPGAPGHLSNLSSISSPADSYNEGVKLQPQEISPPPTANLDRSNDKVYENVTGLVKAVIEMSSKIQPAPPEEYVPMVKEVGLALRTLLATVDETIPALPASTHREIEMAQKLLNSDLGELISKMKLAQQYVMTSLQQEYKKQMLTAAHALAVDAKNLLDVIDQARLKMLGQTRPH
T5 sequence (P18653 whole entry): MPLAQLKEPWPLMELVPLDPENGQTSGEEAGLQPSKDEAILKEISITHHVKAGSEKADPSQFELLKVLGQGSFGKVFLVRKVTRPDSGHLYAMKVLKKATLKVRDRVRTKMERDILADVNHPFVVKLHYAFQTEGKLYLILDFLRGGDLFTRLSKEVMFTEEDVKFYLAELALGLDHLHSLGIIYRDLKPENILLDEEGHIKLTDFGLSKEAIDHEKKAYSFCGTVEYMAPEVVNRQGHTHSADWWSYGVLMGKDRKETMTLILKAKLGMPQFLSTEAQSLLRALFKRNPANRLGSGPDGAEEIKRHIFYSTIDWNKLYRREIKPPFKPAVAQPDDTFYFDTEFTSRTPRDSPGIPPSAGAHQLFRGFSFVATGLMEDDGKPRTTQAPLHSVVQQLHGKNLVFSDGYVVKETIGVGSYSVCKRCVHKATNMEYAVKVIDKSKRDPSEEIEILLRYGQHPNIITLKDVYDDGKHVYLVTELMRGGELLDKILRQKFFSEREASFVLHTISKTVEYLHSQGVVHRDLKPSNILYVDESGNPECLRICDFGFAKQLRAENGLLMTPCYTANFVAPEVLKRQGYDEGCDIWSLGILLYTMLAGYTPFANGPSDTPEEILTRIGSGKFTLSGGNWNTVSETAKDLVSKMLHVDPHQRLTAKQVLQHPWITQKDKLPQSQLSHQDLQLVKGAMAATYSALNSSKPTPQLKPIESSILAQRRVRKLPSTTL
Sequence of CSK (P41241 whole entry): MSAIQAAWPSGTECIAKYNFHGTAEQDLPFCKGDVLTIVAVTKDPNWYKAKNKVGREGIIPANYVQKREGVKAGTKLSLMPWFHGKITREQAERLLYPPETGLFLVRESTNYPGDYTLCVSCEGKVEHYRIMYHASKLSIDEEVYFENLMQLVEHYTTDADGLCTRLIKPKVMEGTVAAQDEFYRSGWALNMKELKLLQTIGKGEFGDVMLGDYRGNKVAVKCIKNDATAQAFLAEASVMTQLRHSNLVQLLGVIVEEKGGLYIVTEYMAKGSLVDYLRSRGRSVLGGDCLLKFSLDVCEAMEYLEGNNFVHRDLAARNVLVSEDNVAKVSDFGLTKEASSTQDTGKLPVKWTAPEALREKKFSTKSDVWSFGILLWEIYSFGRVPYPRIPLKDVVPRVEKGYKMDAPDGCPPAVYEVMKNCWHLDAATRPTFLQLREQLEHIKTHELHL
T1 sequence (Q2NL51 2-490 limits assumed): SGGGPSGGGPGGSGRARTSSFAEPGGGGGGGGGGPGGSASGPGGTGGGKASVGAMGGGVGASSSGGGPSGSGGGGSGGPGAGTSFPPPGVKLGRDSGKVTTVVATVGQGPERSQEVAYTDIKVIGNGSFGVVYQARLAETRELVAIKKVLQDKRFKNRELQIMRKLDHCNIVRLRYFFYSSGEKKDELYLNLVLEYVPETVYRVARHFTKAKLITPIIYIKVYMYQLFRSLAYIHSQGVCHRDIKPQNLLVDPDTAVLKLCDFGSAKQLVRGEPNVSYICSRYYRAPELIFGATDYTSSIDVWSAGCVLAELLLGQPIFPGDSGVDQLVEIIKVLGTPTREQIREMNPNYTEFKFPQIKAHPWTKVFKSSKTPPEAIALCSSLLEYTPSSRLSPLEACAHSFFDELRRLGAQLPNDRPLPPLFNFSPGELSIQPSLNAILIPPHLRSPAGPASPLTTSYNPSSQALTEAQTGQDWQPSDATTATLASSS

Row | SMILES | mass spectrometry score, GSK3Aps [1] | number of identified peptides, GSK3Aps [1] | mass spectrometry score, FAK [2] | number of identified peptides, FAK [2] | mass spectrometry score, GAK [3] | number of identified peptides, GAK [3] | mass spectrometry score, RSK1 [4] | number of identified peptides, RSK1 [4] | mass spectrometry score, EphA4 [5] | number of identified peptides, EphA4 [5] | mass spectrometry score, SRC [6] | number of identified peptides, SRC [6] | mass spectrometry score, EphA5 [7] | number of identified peptides, EphA5 [7] | number of identified peptides, RSK3 [8] | mass spectrometry score, CSK [9] | number of identified peptides, CSK [9] | mass spectrometry score, MAP2K1 [10] | number of identified peptides, MAP2K1 [10]
1 | CC(C)[C@H](CO)Nc1nc(Nc2ccc(C(=O)O)c(Cl)c2)c2ncn(C(C)C)c2n1 [Purvalanol B, reference compound] | 357 | 6 | 269 | 6 |  |  | 1177 | 32 | 1702 | 37 | 544 | 13 | 330 | 14 | 11 | 492 | 12 | 78 | 2
2 | CNC1CC2OC(C)(C1OC)n1c3ccccc3c3c4c(c5c6ccccc6n2c5c31)C(=O)NC4 (stereo not shown) [CZC9280] | 868 | 47 |  |  |  |  | 1634 | 47 | 332 | 11 | 546 | 13 |  |  | 21 | 307 | 8 | 49 | 2
3 | CCCCCCCCCCCCOS(=O)(=O)[O-].[Na+] [SDS] | 585 | 77 | 160 | 6 | 166 | 8 | 825 | 45 | 727 | 33 | 419 | 25 | 246 | 9 | 6 | 365 | 15 | 90 | 4

The remaining lines, values ahead:

Row | mass spectrometry score, GSK3Aps [1] | number of identified peptides, GSK3Aps [1] | mass spectrometry score, FAK [2] | number of identified peptides, FAK [2] | mass spectrometry score, GAK [3] | number of identified peptides, GAK [3] | mass spectrometry score, RSK1 [4] | number of identified peptides, RSK1 [4] | mass spectrometry score, EphA4 [5] | number of identified peptides, EphA4 [5] | mass spectrometry score, SRC [6] | number of identified peptides, SRC [6] | mass spectrometry score, EphA5 [7] | number of identified peptides, EphA5 [7] | number of identified peptides, RSK3 [8] | mass spectrometry score, CSK [9] | number of identified peptides, CSK [9] | mass spectrometry score, MAP2K1 [10] | number of identified peptides, MAP2K1 [10] | SMILES
4 | 635 | 27 | 257 | 8 | 733 | 16 | 312 | 9 | 138 | 3 |  |  |  |  |  |  |  |  |  | NCc1ccc(Nc2ncc(F)c(Nc3ccccc3)n2)cc1 [CZC00008004]
5 | 154 | 3 | 322 | 10 | 278 | 7 | 626 | 19 | 1233 | 32 | 351 | 9 | 144 | 3 | 12 | 809 | 19 |  |  | Cn1c(=O)c(-c2c(Cl)cccc2Cl)cc2cnc(Nc3ccc(CN)cc3)cc21 [CZC7324]

Reference: US20090238808A1, “Process for the identification of novel enzyme interacting compounds” (priority 2005, published 2009)
